Measured values: patent US20070254861A1, “Methods for the prevention and/or treatment of peripheral arterial disease” (Astellas Pharma Inc., priority 2006, published 2007)
Where two headings read alike, the source gives them in different places. Numbered stars: 1 amine (or outer) side, 2 acyl side, 3 side chain; on linkers, the order of the positions; unused ones are H or OH. Bridge positions count the residues as written; N and C are the ends. Square brackets hold non-standard residues; d marks the D form. Peptide text beside a SMILES is read from it. Leu(3R-O(AcLeu(3R-OH))) = CC(=O)N[C@H](C(=O)O[C@H](C(C)C)[C@H](N)C(=O)O)[C@H](O)C(C)C; X1 = CO[C@H](C)C(C(=O)[*:2])N(C)[*:1]; dPhLac = O=C(O)[C@H](O)Cc1ccccc1; NMeA = CN[C@@H](C)C(=O)O; NMeDha = C=C(NC)C(=O)O

Assays:
[1] = test system: dermal blood flow in rat hindlimbs; test: Decreased dermal blood flow after lauric acid injection (laser Doppler); assay type: in vivo
Experimental: Three male SD rats (Japan CLEA) were used in each group of this experiment. A laser Doppler blood flow meter (Laser Doppler Perfusion Imager System, Lisca) was used to evaluate the perfusion in the left (ischemic) and right (non-ischemic) rat hindlimbs. Before and during scanning, animals were placed on a heating plate set at 37° C. to minimize variations in temperature. The femoral artery was cannulated with a polyethylene catheter for i.a. injection of the lauric acid and test drug. For i.v. PGE1 infusion, the jugular vein was cannulated with a polyethylene catheter. Either compound (I) (10 μg/kg) or vehicle was administered in an i.a. bolus injection 15 minutes after the lauric acid injection (0.33 ml/kg, 7.5 mg/ml in distilled water). The laser Doppler images were recorded just before and 10 minutes after the lauric acid injection, as well as 10 minutes after the compound (I) (or vehicle) injection. PGE1 was administered by i.v. infusion at a rate of 1 μg/kg/minutes for 30 minutes beginning 5 minutes before the lauric acid injection. The laser Doppler images were recorded just before and 5 minutes after the start of infusion (just before the lauric acid injection), and then again 10 minutes after the lauric acid injection. Either vehicle (0.5% methylcellulose solution) or clopidogrel (30 mg/kg) was orally administered 4 hours before the experiment. For the oral studies, the laser Doppler images were recorded just before and 10 minutes after the lauric acid injection.

[2] = test system: lauric acid-induced peripheral arterial disease model; test: Lesion progression in rat peripheral arterial disease model induced by lauric acid; assay type: in vivo
Experimental: A rat peripheral arterial disease model was produced by using a lauric acid injection method modified from that of Ashida et al. (Thrombosis research, 18, 55, 1980). Six to 24 animals were used in each group of this experiment. After being fasted overnight, each rat was anesthetized with pentobarbital (60 mg/kg i.p.), and the left femoral artery was freed from the surrounding tissue. The femoral artery was cannulated with a polyethylene catheter for i.a. injection of the lauric acid and the test drug. For the i.v. infusion of PGE1, the jugular vein was cannulated with a polyethylene catheter. To induce peripheral arterial vascular injury, 0.33 ml/kg of lauric acid (7.5 mg/ml in distilled water) was injected into the distal side of the arterial. Compound (I) was administered in a single i.a. bolus injection 15 minutes after the lauric acid injection. PGE1 was administered either intravenously for 30 minutes at 1 μg/kg/minutes starting 5 minutes before the lauric acid injection or intra-arterially for 15 minutes at 0.2 μg/kg/minutes starting 5 minutes after the lauric acid injection. Clopidogrel was administered orally either at 3 and 30 mg/kg 4 hours before the lauric acid injection, or at 30 mg/kg 2 hours after the lauric acid injection. It was also administered orally once a day for 3 days after the lauric acid injection. The treated hindlimb was examined macroscopically on days 3 after the lauric acid injection. The progress of the lesion was assessed using the following 5-point graded scoring system: grade 0: normal appearance, grade 1: the affected region was limited to the nails, grade 2: the affected region was limited to the fingers, grade 3: either the fingers are beginning to fall off or lesions appear on the paw, grade 4: either the paw is beginning to fall off or lesions appear on the leg. The condition of each toe was assessed and scored, and the sum of the scores for the five toes was used as the lesion index. If a lesion developed on the sole of the foot, 5 more points were added.

[3] = Pharmacokinetic studies using rats, i.v. bolus injection; assay type: in vivo; settings: rat, iv, plasma, after i.v. bolus injection
[4] = test system: ADP-induced platelet aggregation; test: Ex vivo platelet aggregation inhibition after single administration in the rat femoral artery; settings: 5 minutes after injection, n=4, mean±SEM
Experimental: Four male SD rats (Japan CLEA) were used in each group of this experiment. All animals were fasted overnight before the experiment. After being anesthetized with pentobarbital (60 mg/kg i.p.), vehicle (5% ethanol) or compound (I) was injected into either the left femoral artery or the right jugular vein via a catheter. The rats were anesthetized with pentobarbital (60 mg/kg i.p.) before blood sampling. Blood was collected from the vena cava in syringes containing 3.8% sodium citrate at the following time points: 5 minutes after an intra-arterial (i.a.) single bolus injection of compound (I) (1-10 μg/kg). Platelet-rich plasma was obtained by centrifuging the blood at 200×g for 5 minutes at ambient temperature. This residue was further centrifuged at 2,000×g for 10 minutes in order to obtain platelet-poor plasma. Platelet counts were measured with an automatic cell counter (MEK-6258, Nihon Kohden, Tokyo, Japan), and adjusted to 3×10^5/μl with platelet-poor plasma. Platelet aggregation in platelet-rich plasma was measured using an aggregometer (MCM Hema Tracer 212, MC Medical, Tokyo, Japan) to record the increase in light transmission detected through a stirred suspension maintained at 37° C. for 5 minutes. Platelet aggregation was induced in 90 μl of platelet-rich plasma (3×10^5/μl) by adding 10 μl of 50 μM ADP. The inhibitory rate was calculated by dividing the absorbance area for the mixture containing the test sample by the absorbance area obtained for the vehicle-treated group.

Gq/11 = settings: Journal of Biological Chemistry, 279, 47438, 2004; cited from earlier work
[5] = test system: systemic blood pressure and heart rate; test: Blood pressure and heart rate after single bolus injection in femoral artery of rats; assay type: in vivo, rat
Experimental: Five male SD rats (Japan CLEA) were used in each group of this experiment. The rats, which were fasted overnight, were anesthetized with urethane (1.4 g/kg i.p.) and then secured on an operating table. The left carotid artery was cannulated with polyethylene catheters in order to monitor systemic blood pressure and heart rate. The left femoral artery was likewise cannulated with polyethylene catheters for the injection of compound (I). Systemic blood pressure was measured with a pressure transducer (AP-200T, Nihon Kohden) and heart rate was measured with a tachometer (AT-600G, Nihon Kohden) that was triggered by the arterial pulse wave. Changes in these parameters were continuously monitored by a thermal recorder (WT-685G, Nihon Kohden). Compound (I) was administered in an i.a. bolus injection at the rate of 5 mL/kg. The dosage (10 to 100 μg/kg) was increased every 10 to 20 minutes. The inhibitory rate was calculated by dividing the heart rate and mean blood pressure levels obtained after the compound (I) injection by them obtained after the vehicle injection.

isolated rat aorta = test: Vasorelaxant effect on vasoconstriction in isolated rat aorta; assay type: cell-based; settings: for IC50: Rattus norvegicus
Experimental: Four male SD rats (Japan CLEA) were used in each group of this experiment. Rats were anesthetized with pentobarbital (60 mg/kg i.p.) and euthanized via exsanguination. The aortas were isolated and all adjacent tissue was removed. Rings of aorta, approximately […] length, were suspended in 10-ml organ baths containing Krebs-Henseleit solution (henceforth referred to as Krebs) of the following composition (mM): NaCl, 112.0; KCl, 4.7; KH2PO4, 1.2; MgSO4, 1.2; CaCl2, 2.5; NaHCO3, 25.0; glucose, 11.0. The Krebs was maintained at 37±1° C. and aerated with a gas mixture of 95% O2:5% CO2 (pH 7.4). Experiments were conducted on aortic tissue of two types. For type 1, the endothelium was removed by gently rubbing the internal surface of the vessel. For type 2, care was taken to maintain the integrity of the endothelium. One ring was placed on a hook that was suspended from a force displacement transducer (SB-1T, Nihon Kohden, Tokyo, Japan), 1.0 g tension was applied, and changes in the force of contraction were isometrically measured. Following a 1-h equilibration period, the rings were pretreated with 1 μM phenylephrine. Compound (I) was dissolved in dimethyl sulfoxide (DMSO) and added to the baths (0.1% DMSO, v/v), after which a cumulative compound (I) (1-100 nM) concentration-response curve was constructed for each type of ring. Contractions were caused in aorta rings with endothelium using three different compounds: 10 μM serotonin (5-HT), 30 nM endothelin-1 (ET-1), and 60 mM KCl. The vasorelaxant effect of compound (I) on the contractions caused by each of these compounds was then compared. Various concentrations of compound (I) were added 30 minutes before treatment with each vasoconstrictor. For 5-HT and KCl, the concentration-inhibition rate was measured for each tissue. For ET-1, each tissue was used to measure the inhibition rate in response to a given concentration of compound (I).

[6] = test system: ADP-induced platelet aggregation; settings: JP-2003-210190; Journal of Antibiotics, 56, 358, 2003; cited from earlier work

With `CCCCC[C@H](O)/C=C/[C@H]1[C@H](O)CC(=O)[C@@H]1CCCCCCC(=O)O` [PGE1, prostaglandin E1] as the molecule, how does the “Effect on lauric acid-induced reduction in dermal blood flow” value (shortened to “Effect on lauric acid-induced reduction”) ([1]; continuous i.v. infusion 1 μg/kg/minutes, after lauric acid injection) read?
Its value is “no improvement in the blood flow”.

And the “Dermal blood flow in both hindlimbs before lauric acid” value ([1]; i.v. infusion 1 μg/kg/minutes, 5 minutes after the start of the infusion)?
The value was “marked increase in dermal blood flow”.

What about the “Inhibition of lesion progression” value ([2]; i.a. infusion at 0.2 μg/kg/minutes for 15 minutes starting 5 minutes after lauric acid) of the same molecule?
Its value is “significantly inhibited lesion progression”.

What about the “Inhibition of lesion progression” value ([2]; i.v. infusion at 1 μg/kg/minutes for 30 minutes starting 5 minutes before lauric acid) of the same molecule?
Its value is “significantly inhibited lesion progression”.

Which “Effect on lauric acid-induced reduction” value ([1]; 30 mg/kg oral 4 hours before the experiment) does the source give for `COC(=O)[C@H](c1ccccc1Cl)N1CCc2sccc2C1` [clopidogrel, (+)-(S)-methyl 2-(2-chlorophenyl)-2-(6,7-dihydrothieno[3,2-c]pyridin-5(4H)-yl)acetate] here?
Its value is “improved the blood flow only slightly”.

And the “Inhibition of lesion progression” value ([2]; oral, administered 4 hours before the lauric acid injection)?
The value was “efficacy of clopidogrel was detected”.

What about the “Inhibition of lesion progression” value ([2]; oral, administered after the lauric acid injection) of the same molecule?
Its value is “no effect was observed”.

For `C=C1C(=O)N[C@@H](C)C(=O)N(C)[C@@H](C)C(=O)N[C@@H]([C@H](OC(=O)[C@@H](NC(C)=O)[C@H](O)C(C)C)C(C)C)C(=O)N(C)C([C@@H](C)OC)C(=O)O[C@H](C)[C@H](NC(C)=O)C(=O)O[C@H](Cc2ccccc2)C(=O)N1C` (stereo partly drawn) [compound (I)] (Ac-T[dPhLac][NMeDha]A[NMeA][Leu(3R-O(AcLeu(3R-OH)))][X1]; ester 1-C), which half-life [3] is on record?
Its half-life is 3.7 min.

And the “Inhibitory rate of ADP-induced platelet aggregation” value (shortened to “Inhibitory rate”) ([4]; 1 μg/kg i.a. bolus)?
Its value is −5.6±5.4%.

And the “Inhibitory rate” value ([4]; 3 μg/kg i.a. bolus)?
Its value is 38±5.1%.

What about the “Inhibitory rate” value ([4]; 10 μg/kg i.a. bolus) of the same molecule?
The value was 71±7.0%.

And the Gq/11 inhibition (Gq/11)?
The Gq/11 inhibition was “specific Gq/11 inhibitor”.

And the “Effect on lauric acid-induced reduction” value ([1]; 10 μg/kg i.a. bolus 15 minutes after the lauric acid injection)?
The value was “improved the lauric acid-induced reduction in dermal blood flow somewhat, but did not correct it completely”.

What about the “Relative mean blood pressure reduction” value ([5]; 30 μg/kg i.a. bolus) of the same molecule?
The value was 25±5.2%.

What about the “Relative mean blood pressure reduction” value ([5]; 100 μg/kg i.a. bolus) of the same molecule?
Its value is 50±2.1%.

What about the “Hypotensive dose relative to dose with significant preventive effect (Example 4)” value ([5]; i.a. administration) of the same molecule?
Its value is 10 times.

What about the Significant hypotensive dose ([5]; i.a. bolus, Example 6) of the same molecule?
The Significant hypotensive dose was 0.03 mg/kg.

What about the “Change of the heart rate” value ([5]; up to 100 μg/kg i.a.) of the same molecule?
Its value is “no significant change”.

And the “Dose inhibiting lesion progression with significance” value ([2]; single i.a. bolus 15 minutes after the lauric acid injection, day 3)?
Its value is ≥ 0.003 mg/kg.

What about the “Effect on KCl-induced contractions” value (isolated rat aorta; 60 mM KCl, even at a concentration of 1 μM) of the same molecule?
The value was “ineffective”.

And the IC50 (isolated rat aorta; contraction induced by 30 nM ET-1, aorta with endothelium, n=4, mean, read-out: IC50 of inhibition of vascular contraction)?
The IC50 was 18 nM.

What about the IC50 (isolated rat aorta; contraction induced by 10 μM 5-HT, aorta with endothelium, n=4, mean±SEM, read-out: IC50 of inhibition of vascular contraction) of the same molecule?
The IC50 was 8.6 ± 1 nM.

What about the IC50 (isolated rat aorta; span over the three vasoconstrictors, read-out: IC50 values for vasoconstrictions induced by phenylephrine, 5-HT and ET-1) of the same molecule?
Its IC50 is 8.6 to 18 nM.

What about the IC50 (isolated rat aorta; with endothelium, pre-contracted with 1 μM phenylephrine, n=4, mean±SEM, read-out: IC50 of relaxation of isolated rat aorta) of the same molecule?
The IC50 was 16 ± 2.3 nM.

What about the IC50 (isolated rat aorta; without endothelium, pre-contracted with 1 μM phenylephrine, n=4, mean±SEM, read-out: IC50 of relaxation of isolated rat aorta) of the same molecule?
Its IC50 is 11 nM.

And the “Inhibition of ADP-induced platelet aggregation in human” value [6]?
The value was “inhibits ADP-induced platelet aggregation in human”.
